Assay results: US9302004B2, “Phenalene-1-one derivatives, method for producing same and use thereof” (TRIOPTOTEC GMBH, priority 2011, dated 2016)
Structures can show the parent of a compound that is named as a salt.

Columns and labels:
Format in all cases: cell-based
[1] = test system: Staphylococcus aureus (ATCC number: 25923); experiment: Phototoxicity test (photodynamic activity, CFU assay) against gram-positive bacteria; details: for Required concentration in order to achieve a reduction by ≧ 3 log10 steps: S. aureus, 15 min incubation in darkness, then irradiation 12.3 J/cm^2 blue light (Emax 418 nm), CFU/ml 24 h after; for antimicrobial action compared with the starting substance perinaphthenone: from Table 1 (S. aureus and E. coli, sentence does not separate them), reduction of the germ count by 3 log10 steps; for times lower concentration needed to achieve a reduction by 3 log10 steps, compared with perinaphthenone: phototoxicity test, Table 1 (S. aureus and E. coli, sentence does not separate them)
Procedure: (§1) A sample of the bacterial strain Staphylococcus aureus (ATCC number: 25923) or Escherichia coli (ATCC number: 25922) was extracted from a cryogenically frozen culture, isolated on Müller-Hinton agar plates, and cultured under aerobic conditions at 37° C. in an overnight culture. 10 ml Müller-Hinton liquid medium was then inoculated with a smear of the bacterial culture (individual colony) and incubated overnight at 37° C. The thus-obtained bacterial suspension was centrifuged for 15 min at 3000 rpm and the obtained bacterial pellet was resuspended in 10 ml sterile PBS. The optical density of the bacterial suspensions for the phototoxicity tests was OD600nm=0.6, which corresponds to a bacterial count of ˜[…] bacteria per ml. The biochemical analysis and resistance determination of the bacteria were carried out with the VITEK2 system according to the guidelines M100-S14 of the NCCLS (National Committee for Clinical Laboratory Standards guidelines 2004).
(§2) 200 μl of a bacterial suspension (bacterial density: 10^8-10^12/ml) was incubated with 200 μl each of different concentrations of the photosensitizers listed in Table 1 at 37° C. in darkness for 15 minutes. The bacteria were then washed twice with PBS, resuspended in 200 μl PBS, the entire volume was transferred to a 96-well microtiter plate and then irradiated.
(§3) For the sensitization, the UV 236 lamp (emission 380-480 nm, with an emission maximum Emax: 418 nm) from Waldmann Medizintechnik was used and the plates lying on the light source were irradiated from below, in order to prevent scattering through the liquid. The applied light dose was 12.3 J/cm^2. As controls, bacterial suspensions that were irradiated, not irradiated and only incubated with photosensitizer were entrained, and incubated both with and without photosensitizer.
(§4) The CFU assay was then carried out to determine the colony-forming units per ml (CFU). For this, a series of dilutions from 10^−1 to 10^−9 of the corresponding bacterial suspension was produced. 100 μl was then plated onto Müller-Hinton plates and incubated at 37° C. for 24 h. The number of surviving colonies was then determined by counting and plotted on a graph as colony-forming units (CFU) per ml against the respectively used photosensitizer concentration.

[2] = test system: Escherichia coli (ATCC number: 25922); experiment: Phototoxicity test (photodynamic activity, CFU assay) against gram-negative bacteria; details: E. coli; 15 min incubation in darkness, then irradiation 12.3 J/cm^2 blue light (Emax 418 nm); CFU/ml 24 h after
Procedure: as §1, §2, §3, §4

S. aureus = experiment: Surface disinfection of catheter tubes, cell count after illumination; details: catheter sections with dried S. aureus; 5 min in darkness, 12.3 J/cm^2 blue light (Emax 418 nm) for 30 min
Procedure: 5-cm long catheter sections were filled with 1 ml of a stable S. aureus solution (1 E+12 cfu/ml) and incubated overnight at 37° C. After drying-out of the solution, in each case 2 ml of a solution of PBS which contained a corresponding concentration (0, 1, 10, 50, 80 and 100 μM) of the compounds produced in Examples 2), 4b), 5b), 7) and 10) and 1H-phenalene-1-one was sprayed. After a short exposure time of 5 minutes in darkness, the catheter sections were illuminated with a light dose of 12.3 J/cm^2 with blue light (Emax: 418 nm) for a period of 30 min.
As a control, in each case non-illuminated catheter sections were used, to which the corresponding concentrations (0, 1, 10, 50, 80 and 100 μM) of the compounds produced in Examples 1b)-f) and 1H-phenalene-1-one were applied.
To determine the cell count, the illuminated and non-illuminated catheter sections were filled with 1 ml PBS and ultrasounded. Growth medium was added to the washing solution in different dilutions (10^0 to 10^7) and the solution was smeared onto agar plates. The cell count was performed after 24 h of incubation at 37° C.

SMILES: O=C1C(C[n+]2ccccc2)=Cc2cccc3cccc1c23 [Example 7]
- Required concentration in order to achieve a reduction by ≧ 3 log10 steps [1]: 80 μM
- antimicrobial action compared with the starting substance perinaphthenone [1]: improved antimicrobial action
- times lower concentration needed to achieve a reduction by 3 log10 steps, compared with perinaphthenone [1]: approximately 10 times
- Required concentration in order to achieve a reduction by ≧ 3 log10 steps [2]: 10 μM
- times lower concentration needed to achieve a reduction by 3 log10 steps, compared with perinaphthenone (S. aureus): approximately 10 times

SMILES: O=C1C=Cc2cccc3cccc1c23 [Comparison, perinaphthenone, reference compound]
- Required concentration in order to achieve a reduction by ≧ 3 log10 steps [1]: 200 μM
- Required concentration in order to achieve a reduction by ≧ 3 log10 steps [2]: 300 μM

SMILES: CC[N+](CC)(CC)CC1=Cc2cccc3cccc(c23)C1=O [Example 10, 2-((N,N,N-Triethyl)aminomethyl)-1H-phenalene-1-one hydrochloride]
- Required concentration in order to achieve a reduction by ≧ 3 log10 steps [1]: 50 μM for S. aureus; 50 μM for E. coli
- antimicrobial action compared with the starting substance perinaphthenone [1]: improved antimicrobial action
- times lower concentration needed to achieve a reduction by 3 log10 steps, compared with perinaphthenone [1]: approximately 10 times
- Required concentration in order to achieve a reduction by ≧ 3 log10 steps [2]: 50 μM for S. aureus; 50 μM for E. coli
- times lower concentration needed to achieve a reduction by 3 log10 steps, compared with perinaphthenone (S. aureus): approximately 10 times

SMILES: NCCOCC1=Cc2cccc3cccc(c23)C1=O [Example 4b, 2-((2-Aminoethoxy)methyl)-1H-phenalene-1-one hydrochloride]
- Required concentration in order to achieve a reduction by ≧ 3 log10 steps [1]: 50 μM
- antimicrobial action compared with the starting substance perinaphthenone [1]: improved antimicrobial action
- times lower concentration needed to achieve a reduction by 3 log10 steps, compared with perinaphthenone [1]: approximately 10 times
- Required concentration in order to achieve a reduction by ≧ 3 log10 steps [2]: 300 μM
- times lower concentration needed to achieve a reduction by 3 log10 steps, compared with perinaphthenone (S. aureus): approximately 10 times

SMILES: NCCOCCOCC1=Cc2cccc3cccc(c23)C1=O [Example 5b, 2-((2-(2-Aminoethoxy)ethoxy)methyl)-1H-phenalene-1-one hydrochloride]
- Required concentration in order to achieve a reduction by ≧ 3 log10 steps [1]: 50 μM
- antimicrobial action compared with the starting substance perinaphthenone [1]: improved antimicrobial action
- times lower concentration needed to achieve a reduction by 3 log10 steps, compared with perinaphthenone [1]: approximately 10 times
- Required concentration in order to achieve a reduction by ≧ 3 log10 steps [2]: 80 μM
- times lower concentration needed to achieve a reduction by 3 log10 steps, compared with perinaphthenone (S. aureus): approximately 10 times

SMILES: NCC1=Cc2cccc3cccc(c23)C1=O [Example 2, 2-Aminomethyl-1H-phenalene-1-one]
- Required concentration in order to achieve a reduction by ≧ 3 log10 steps [1]: 1 μM
- antimicrobial action compared with the starting substance perinaphthenone [1]: improved antimicrobial action
- times lower concentration needed to achieve a reduction by 3 log10 steps, compared with perinaphthenone [1]: approximately 10 times
- Required concentration in order to achieve a reduction by ≧ 3 log10 steps [2]: 50 μM
- times lower concentration needed to achieve a reduction by 3 log10 steps, compared with perinaphthenone (S. aureus): approximately 10 times
